Read-outs that look alike come from different tables or passages of the source.
How the values were obtained:
HK-2 cells = test: TGF-β-induced α-SMA expression, western blot; type: cell-based, human
Experimental: INS018-055 stock was diluted to eight concentrations in a threefold dilution with DMSO from the final highest concentration at 10 μM. A total of 3.0 × 10^5 HK-2 cells per well were seeded into a six-well plate containing 2.0 ml culture medium at a density of 3.0 × 10^5 cells per well. The cells were cultured overnight at 37 °C. The next day, the complete medium was replaced with K-SFM medium supplemented with 0.025 mg ml^−1 bovine pituitary extract, 2.5 ng ml^−1 EGF and 1% penicillin–streptomycin for starvation. After 24 h of incubation, HK-2 cells were treated with compounds (eight concentrations, threefold dilution) for 30 min before being stimulated with 8 ng ml^−1 TGF-β for an additional 48 h. TGF-β induction was used as the maximum induction positive control. The final DMSO concentration in the assay was 0.1%. Cells were cultured for 48 h at 37 °C. The culture medium was discarded at the end of induction. Cells were washed once using ice-cold DPBS. RIPA buffer was added to lyse the cells for 20 min. Cells were collected, and the supernatant was stored at −80 °C. The total amount of protein in the lysate was determined using the BCA Protein Assay Kit.
For whole-cell lysates, cells were collected and lysed on ice for 20 min with RIPA buffer with protease and phosphatase inhibitors (cOmplete and PhosSTOP, Roche). The protein concentration of the cell lysates was determined using the BCA Protein Assay Kit. After denaturation, whole-cell lysates and cytoplasm and nuclear extraction fractions were loaded onto 4–12% gradient Bis-Tris gels (15 wells) and 4–20% Tris-glycine gels (26 wells), respectively. For western blot detection of target proteins, 15 μg of whole-cell lysates, 5–10 μg of the cytoplasm fraction, 1–2 μg of nuclear matrix and 2–4 μg of the chromatin fraction were loaded into each lane. For western blot detection of histone 3, 0.4–1 μg of the chromatin fraction was loaded. The gels were run for 0.5 h at 80 V before being run at 120 V for another 1 h. When electrophoresis was completed, the gels containing target proteins were transferred onto NC membrane using the iBlot 2 Gel Transfer Device for 13 min at 20 V. All membranes were blocked with 5% BSA in TBST buffer at room temperature for 1 h and then incubated with primary antibodies specific to the indicated targets in TBST buffer containing 5% BSA at 4 °C overnight. After the primary antibody, membranes were washed three times with TBST buffer before incubation with HRP-conjugated secondary antibodies at room temperature for 1 h. Membranes were stripped with Restore Western Blot Stripping Buffer (Thermo Fisher) for GAPDH reference protein detection after exposure for the target proteins. Images of blots were acquired using Image Quant LAS 4000. Integrated intensity of bands from 16-bit blot images was used for quantitation with the software Image Studio Lite. Protein-quantification data of two independent experiments were calculated and analyzed using GraphPad.

CC(C)n1cnc(-c2ccc(F)cc2)c1-c1nc(C(=O)Nc2ccc(N3CCN(C)CC3)cc2)c[nH]1 [INS018_055, 2-[4-(4-fluorophenyl)-1-(prop-2-yl)imidazol-5-yl]-N-[4-(4-methylhexahydropyrazin-1-yl)phenyl]-1H-imidazole-4-carboxamide]
88.9%: Any TEAE (healthy subjects; MAD any dose N=18)
77.8%: Investigations (healthy subjects; MAD any dose N=18)
5.6%: Abdominal distension (healthy subjects; MAD any dose N=18) | Arthralgia (healthy subjects; MAD any dose N=18) | Basophil count increased (healthy subjects; MAD any dose N=18) | Blood bilirubin increased (healthy subjects; MAD any dose N=18) | Blood creatine phosphokinase increased (healthy subjects; MAD any dose N=18) | Blood pressure decreased (healthy subjects; MAD any dose N=18) | Blood pressure increased (healthy subjects; MAD any dose N=18) | Cardiac disorders (healthy subjects; MAD any dose N=18) | Electrolyte imbalance (healthy subjects; MAD any dose N=18) | Hepatic enzyme increased (healthy subjects; MAD any dose N=18) | Hyperphosphataemia (healthy subjects; MAD any dose N=18) | Hyponatraemia (healthy subjects; MAD any dose N=18) | Infections and infestations (healthy subjects; MAD any dose N=18) | Nasal obstruction (healthy subjects; MAD any dose N=18) | Nausea (healthy subjects; MAD any dose N=18) | Pruritus (healthy subjects; MAD any dose N=18) | Sinus bradycardia (healthy subjects; MAD any dose N=18) | Total bile acids increased (healthy subjects; MAD any dose N=18) | Vomiting (healthy subjects; MAD any dose N=18) | Blood uric acid increased (healthy subjects; SAD any dose N=18) | Body temperature increased (healthy subjects; SAD any dose N=18) | Gastrointestinal disorders (healthy subjects; SAD any dose N=18) | Headache (healthy subjects; SAD any dose N=18) | Hypotension (healthy subjects; SAD any dose N=18) | Nervous system disorders (healthy subjects; SAD any dose N=18) | Vascular disorders (healthy subjects; SAD any dose N=18) | Noninfective gingivitis (healthy subjects; in vivo) | Upper respiratory tract infection (healthy subjects; in vivo)
1.182: a-SMA normalized by GAPDH (HK-2 cells; 3.33333 uM)
11.1%: Anaemia (healthy subjects; MAD any dose N=18) | Blood and lymphatic system disorders (healthy subjects; MAD any dose N=18) | Blood fibrinogen decreased (healthy subjects; MAD any dose N=18) | Epistaxis (healthy subjects; MAD any dose N=18) | Pyrexia (healthy subjects; MAD any dose N=18) | White blood cells urine positive (healthy subjects; MAD any dose N=18) | Cardiac disorders (healthy subjects; SAD any dose N=18) | Sinus bradycardia (healthy subjects; SAD any dose N=18)
2.139: a-SMA normalized by GAPDH (HK-2 cells; 0.004572 uM)
66.7%: Any TEAE (healthy subjects; MAD BID 7 d 30 mg N=6)
27.8%: Influenza like illness (healthy subjects; MAD any dose N=18) | Pain in extremity (healthy subjects; MAD any dose N=18) | Fecal occult positive (healthy subjects; SAD any dose N=18) | Hypertriglyceridaemia (healthy subjects; SAD any dose N=18)
50.0%: Hypertriglyceridaemia (healthy subjects; MAD any dose N=18) | Any TEAE (healthy subjects; SAD 120 mg N=6)
38.9%: Nervous system disorders (healthy subjects; MAD any dose N=18)
1.23: a-SMA normalized by GAPDH (HK-2 cells; 10 uM)
1.835: a-SMA normalized by GAPDH (HK-2 cells; 0.0411523 uM)
16.7%: Haematuria (healthy subjects; MAD any dose N=18) | Headache (healthy subjects; MAD any dose N=18) | Rash (healthy subjects; MAD any dose N=18) | Renal and urinary disorders (healthy subjects; MAD any dose N=18) | Respiratory, thoracic and mediastinal disorders (healthy subjects; MAD any dose N=18)
104 nM: IC50 (HK-2 cells; TGF-β 8 ng/ml, 48 h, single experiment, read-out: IC50 for α-SMA inhibition)
100.0%: Any TEAE (healthy subjects; MAD BID 7 d 60 mg N=6) | Any TEAE (healthy subjects; MAD BID 7 d 90 mg N=6)
22.2%: Dizziness (healthy subjects; MAD any dose N=18) | Gastrointestinal disorders (healthy subjects; MAD any dose N=18) | Skin and subcutaneous tissue disorders (healthy subjects; MAD any dose N=18)
55.6%: Fecal occult positive (healthy subjects; MAD any dose N=18) | Any TEAE (healthy subjects; SAD any dose N=18)
1.612: a-SMA normalized by GAPDH (HK-2 cells; 0.123457 uM)
1.401: a-SMA normalized by GAPDH (HK-2 cells; 0.37037 uM)
0.0%: Limb discomfort (healthy subjects; MAD any dose N=18) | Blood glucose increased (healthy subjects; SAD any dose N=18) | White blood cells urine positive (healthy subjects; SAD any dose N=18)
83.3%: Any TEAE (healthy subjects; SAD 30 mg N=6)
33.3%: Musculoskeletal and connective tissue disorders (healthy subjects; MAD any dose N=18) | Any TEAE (healthy subjects; SAD 60 mg N=6) | Investigations (healthy subjects; SAD any dose N=18)
